Results on three molecules are retold here after article PMC8370991, “Structural basis for the inhibition of HTLV-1 integration inferred from cryo-EM deltaretroviral intasome structures” (Nature Communications, 2021).

For assay [1], the target named is 6xHis-tagged STLV-1 MarB43 integrase A219E (simian T-cell lymphotropic virus type 1 (STLV-1), isolate MarB43). The assay is described as follows: pull-down.
Assay [2] deals with STLV-1 IN(A219E) as assembled into the intasome for cryo-EM (simian T-cell lymphotropic virus type 1 (STLV-1), isolate MarB43). The assay is described as follows: cryo-EM structure.
Assay [3] has as its system STLV-1 intasome. In words: EMSA of stability (retention) of assembled STLV-1 intasome. The note with it: three hours of incubation with the drug. On the procedure: The donor DNA (vDNA) that mimics the 3′-processed LTR of STLV-1 DNA was preassembled by annealing Atto-680-labelled MarB43_U5_S30UP and MarB43_U5_S30B oligonucleotides (Supplementary Table 4) in 100 mM Tris pH 7.4, 400 mM NaCl. In all, 16 μg of STLV-1 IN or its mutants were co-incubated with 38.4 μg of LEDGF/ΔIBD-B56γ at 4 °C for 30 min to allow binding. Samples were then supplemented with 0.5 μL 20 μM Atto680-labelled vDNA, and sufficiently diluted to give a final NaCl concentration of 60 mM. This was immediately placed in a 37 °C heating block for 10 min. The sample was then returned to room temperature (RT) and any precipitate was resolubilised by the addition of NaCl to a final concentration of 1.2 M. After equilibration of the samples at RT for 10 min, the samples were either immediately supplemented with 10 μg/mL heparin or, where stated, were incubated further or additional reagents/INSTIs were added, as described. Samples, supplemented with 10 μg/mL heparin, devoid of loading dye were carefully loaded onto a 3% low melting point agarose gel containing 10 μg/mL heparin and electrophoresed, avoiding overheating. Densitometry analysis was carried out in ImageJ v1.50i. Measurements from at least three independent experiments were taken. Standard deviations and p values were calculated in Prism 9.
Supplementary Figure 10 | STLV-1 IN A219E binds more B56g and stabilises the deltaretroviral intasome. a, Pulldown of LEDGF/ΔIBD-B56γ by wild type His6-STLV-1 IN and its mutants. Mutations introduced in the IN:B56 binding interface can strengthen the interaction. b, A219E-mutated STLV-1 IN increases the amount of intasome assembled in vitro in an EMSA assay, compared to wild type IN. Values are normalised to wild type STLV-1 IN. c, EMSA study of the effect of addition of BIC on the stability (retention) of the assembled STLV-1 intasome after three hours of incubation with the drug. Values shown represent percentage of intasome retained as compared to intasome assayed by EMSA straight after assembly. Averages and standard deviations are shown for two independent biological replicates. Primary data from pull-down assays and EMSA is also included below each panel. The red arrow indicates the intasome band. INSTI, integrase strand transfer inhibitor. Source data are provided as a Source Data File.
(1 picture or pasted object on this page, not shown here)

For assay [4], the system named is HTLV-1. In words: MT-2-Jurkat cell-to-cell HTLV-1 infection, proviral load by qPCR. It is filed as cell-based. The conditions noted are these: HTLV-1 infection of Jurkat T cells. On the procedure:
Six of the most promising compounds were selected for assessment of their efficacy in inhibiting HTLV-1 viral infection. To this end, we employed an MT-2-Jurkat co-culture relying on cell-to-cell-based HTLV-1 transmission, which we successfully used in a previous study. In this assay format, the infection of Jurkat cells is measured via real-time quantitative PCR (qPCR) determination of the proviral load (PVL). […] A block in the integration reaction was confirmed by Alu-qPCR experiments (Supplementary Fig. 6). […] We suspect this is owing to a more efficient uptake of BIC than RAL by Jurkat T cells.
MT-2 and E6.1 Jurkat T-cell lines (ATCC) were used for the experiments. The cells were cultured at 37 °C with 5% CO2 and maintained in Roswell Park Memorial Institute (RPMI) media supplemented with 10% fetal bovine serum (FBS), 100 U penicillin, 100 μg/mL streptomycin and 0.25 μg/mL fungizone.
The HTLV-1 cell-to-cell infection was performed as previously described; Jurkat T cells were counted and diluted in complete RPMI to a final concentration of 0.25 × 10^6 cells/ml and pre-treated with INSTI drugs (final concentration ranging from 0.2 pM to 2 μM) or DMSO as a control for 24 h. MT-2 cells were resuspended in RPMI at a concentration of 2 × 10^6 cells/ml and subjected to a nonlethal γ-radiation dose of 400 Gy. Cells were resuspended at a concentration of 2 × 10^6 cells/ml in serum-free RPMI supplemented with the corresponding INSTI drug. Co-culture of 0.5 × 10^6 for each cell line was carried out for 16 h, after which cells were washed in PBS and resuspended in 1 ml of depletion buffer (PBS, 0.1% FBS and 2 mM EGTA). MT-2 cells were depleted from the culture by means of anti-CD25 magnetic beads (DynabeadsTM CD25, Thermo Fisher). Depletion efficiency was confirmed via flow cytometry as described previously. Jurkat cells were cultured for 2 weeks in complete RPMI supplemented with the drugs and genomic DNA was extracted (DNeasy kit, Qiagen) and stored at −20 °C for subsequent analysis. All the experiments were done in triplicate.
The PVL was measured as previously described[9],[53],[54]. Jurkat genomic DNA was quantified and diluted to a concentration of 5 ng/μL. Real-time qPCR analysis were conducted on 20 ng of gDNA to measure the level of HTLV-1 tax and gapdh genes (Supplementary Table 5). For the standard curve, the gDNA from an HTLV-1 naturally infected T-cell clone (clone 11.50, courtesy of professor Charles Bangham), which has one copy of tax and two of gapdh, was used. The integrated provirus copy number was calculated as follows: (tax copy numbers)/(2×gapdh copy number)[53], and normalised to the DMSO-treated control which was set to 100%. The PVL data were fitted to a dose–response curve in Prism 7 and the EC50 was calculated. Alu-PCR was performed as previously described in ref. [55]. In brief, the first PCR reaction was done with Phusion polymerase starting from 80 ng of gDNA using the ALU-specific primers (Alu-F/Gag-R). The nested PCR was run diluting the amplificated product 1:50. The reaction was done as a qPCR using Gag-specific primers (Gag-R/Gag-F) and the Luna SYBR dye reaction mix (New England Biolabs). The integrated provirus copy numbers were normalised to GAPDH and Jurkat cells treated with DMSO and infected with HTLV-1 were set to 100%. Experiments were done in triplicate.

The target of assay [5] is T1, recombinant HTLV-1 IN (Human T-cell leukemia virus 1, UniProt P03362).
T1 construct: made in house
The note with it: previously obtained values, read-out: HTLV-1 IN strand transfer IC50, cited from earlier work.

The test system of assay [6] is HTLV-1. The conditions noted are these: cited from earlier work.
The subject of assay [7] is HIV-1. The conditions noted are these: HIV-1 infection model; supplementary ref 18; read-out: HIV-1 EC50 ± stdev; cited from earlier work.

Like-named read-outs stand apart in the source and are kept apart here.

In assay [1], “LEDGF/ΔIBD-B56γ (from UniProt Q13362 11-380)” registered a fold B56γ recovered against WT IN of 2 fold.

Molecule “STLV-1 IN(A219E) as assembled into the intasome for cryo-EM (enzyme)” displayed a stoichiometry N in assay [2] of 4.

On to `O=C(NCc1c(F)cc(F)cc1F)c1cn2c(c(O)c1=O)C(=O)N1[C@H]3CC[C@H](C3)O[C@@H]1C2` [Bictegravir], for which the “percentage of intasome retained” value in assay [3] (1 uM, Replicate 1) came to 54.7791%; in assay [3] (1 uM, Replicate 2), 56.5068%; in assay [3] (50 uM, Replicate 1), 73.5691%; in assay [3] (50 uM, Replicate 2), 117.429%; in assay [3] (50 uM, Replicate 3), 83.837%. The “improvement in EC50 compared with RAL” value in assay [4] was found to be 20 fold. Besides, the IC50 in assay [5] (Replicate 1) was 163 nM; in assay [5] (Replicate 2) it was 136 nM; in assay [5] (Replicate 3), 212 nM. The concentration giving a half-maximal response (EC50) in assay [6] (MT-2-Jurkat cell-to-cell infection, read-out: HTLV-1 EC50) was 0.3 ± 0.173 nM; in assay [6] (Replicate 1, previously reported values, read-out: HTLV-1 infection EC50), 0.54 nM; in assay [6] (Replicate 2, previously reported values, read-out: HTLV-1 infection EC50), 0.44 nM; in assay [7], 1.6 ± 0.4 nM.

One may read the stoichiometry N as a count of units in the complex or per binding partner. What is called IC50 is the concentration that inhibits the measured activity by half. For orientation: EC50 means the concentration needed to bring the measured effect to its halfway point.
